Measurements reported in ChEMBL document CHEMBL1133055, “6-Acylamino-2-[(alkylsulfonyl)oxy]-1H-isoindole-1,3-dione mechanism-based inhibitors of human leukocyte elastase” (Bioorg Med Chem Lett, 2000).

Assays:
Homo sapiens [1] = organism: Homo sapiens; test: In vitro inhibition of Serine protease chymotrypsin; design: unit not given here
Homo sapiens [2] = organism: Homo sapiens; test: Ratio of kobs/[l] for human leukocyte elastase and kobs/[l] for chymotrypsin
[3] = target: T1, Neutrophil elastase (Homo sapiens) (UniProt P08246); test: Inhibition of human leukocyte elastase; design: unit not given here
T1 sequence (whole entry): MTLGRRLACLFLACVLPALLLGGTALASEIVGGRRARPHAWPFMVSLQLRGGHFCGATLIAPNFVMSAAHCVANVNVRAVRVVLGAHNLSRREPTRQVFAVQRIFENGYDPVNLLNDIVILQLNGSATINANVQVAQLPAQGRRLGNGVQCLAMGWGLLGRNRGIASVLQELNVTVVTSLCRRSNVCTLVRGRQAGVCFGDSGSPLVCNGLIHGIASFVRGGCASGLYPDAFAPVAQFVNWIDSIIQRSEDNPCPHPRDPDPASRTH

k obs / 1 (Homo sapiens [1]) | Ratio (Homo sapiens [2]) | k obs / 1 [3] | Compound
6600 | 8.6 | 57000 | COC(=O)CCCC(=O)Nc1ccc2c(c1)C(=O)N(OS(C)(=O)=O)C2=O
11000 | 15 | 160000 | Cc1ccc(S(=O)(=O)N[C@@H](Cc2ccccc2)C(=O)Nc2ccc3c(c2)C(=O)N(OS(C)(=O)=O)C3=O)cc1
12000 | 9.2 | 110000 | CS(=O)(=O)ON1C(=O)c2ccc(N)cc2C1=O
5400 | 5.6 | 30000 | COC(=O)C(=O)Nc1ccc2c(c1)C(=O)N(OS(C)(=O)=O)C2=O
4800 | 2 | 9700 | CS(=O)(=O)ON1C(=O)c2ccc(NC(=O)CCc3ccccc3)cc2C1=O
3300 | 7.6 | 25000 | CS(=O)(=O)ON1C(=O)c2ccc(NC(=O)c3cccc4ccccc34)cc2C1=O
1600 | 13 | 20000 | CS(=O)(=O)ON1C(=O)c2ccc(NC(=O)/C=C/c3ccccc3)cc2C1=O
9600 | 2.6 | 25000 | CCS(=O)(=O)ON1C(=O)c2ccc(NC(=O)CCC(=O)OC)cc2C1=O
14000 | 16 | 220000 | CCS(=O)(=O)ON1C(=O)c2ccc(NC(=O)CCCC(=O)OC)cc2C1=O
13000 | 4.6 | 60000 | CCS(=O)(=O)ON1C(=O)c2ccc(N)cc2C1=O
3600 | 6.9 | 25000 | CS(=O)(=O)ON1C(=O)c2ccc(NC(=O)c3ccccc3)cc2C1=O
5300 | 11 | 56000 | CCS(=O)(=O)ON1C(=O)c2ccc(NC(=O)C(=O)OC)cc2C1=O
